Laboratory results taken from US10131673B2, “Piperidine substituted tricyclic pyrazolo[1,5-a]pyrimidine derivatives with inhibitory activity on the replication of the respiratory syncytial virus (RSV)” (priority 2014, dated 2018).

Assays:
rgRSV224 virus = test: microbe, parasite or virus in culture; type: cell-based, respiratory syncytial virus (RSV); settings: human respiratory syncytial virus, HeLa, 72 h, read-out: RSV HELA pEC50 (converted)

Experimental for HeLa cells: Black 384-well clear-bottom microtiter plates (Corning, Amsterdam, The Netherlands) were filled via acoustic drop ejection using the echo liquid handler (Labcyte, Sunnyvale, Calif.). 200 nL of compound stock solutions (100% DMSO) were transferred to the assay plates. 9 serial 4-fold dilutions of compound were made, creating per quadrant the same compound concentration. The assay was initiated by adding 10 μL of culture medium to each well (RPMI medium without phenol red, 10% FBS-heat inactivated, 0.04% gentamycin (50 mg/mL). All addition steps are done by using a multidrop dispenser (Thermo Scientific, Erembodegem, Belgium). Next, rgRSV224 virus (MOI=1) diluted in culture medium was added to the plates. rgRSV224 virus is an engineered virus that includes an additional GFP gene (Hallak L K, Spillmann D, Collins P L, Peeples M E. Glycosaminoglycan sulfation requirements for respiratory syncytial virus infection; Journal of virology (2000), 74(22), 10508-13) and was in-licensed from the NIH (Bethesda, Md., USA). Finally, 20 μL of a HeLa cell suspension (3,000 cells/well) were plated. Medium, virus- and mock-infected controls were included in each test. The wells contain 0.05% DMSO per volume. Cells were incubated at 37° C. in a 5% CO2 atmosphere. Three days post-virus exposure, viral replication was quantified by measuring GFP expression in the cells by an in house developed MSM laser microscope (Tibotec, Beerse, Belgium). The EC50 was defined as the 50% inhibitory concentration for GFP expression. In parallel, compounds were incubated for three days in a set of white 384-well microtiter plates (Corning) and the cytotoxicity of compounds in HeLa cells was determined by measuring the ATP content of the cells using the ATPlite kit (Perkin Elmer, Zaventem, Belgium) according to the manufacturer's instructions. The CC50 was defined as the 50% concentration for cytotoxicity.

## Cc1cccc2ncnc(N3CCCCC3c3cc4nc5c(c(N6CCCC6)n4n3)CCC5)c12 (stereo not shown) [Compound P22, 2-(1-(5-methylquinazolin-4-yl)piperidin-2-yl)-8-(pyrrolidin-1-yl)-6,7-dihydro-5H-cyclopenta[d]pyrazolo[1,5-a]pyrimidine]
rgRSV224 virus
  EC50: 282 nM
HeLa cells
  TOX HELA pCC50: 4.6

## Cc1ccc(NS(C)(=O)=O)c(C(=O)N2CCCCC2c2cc3nc4c(cn3n2)CCCC4)c1 (stereo not shown) [Compound P17, N-(4-methyl-2-(2-(5,6,7,8-tetrahydropyrazolo[5,1-b]quinazolin-2-yl)-piperidine-1-carbonyl)phenyl)methanesulfonamide]
rgRSV224 virus
  EC50: 97.7 nM
HeLa cells
  TOX HELA pCC50: 4.6

## Cc1ccc2nc(Cl)nc(N3CCCCC3c3cc4nc5c(c(N6CCOCC6)n4n3)CCCC5)c2c1 (stereo not shown) [Compound P8, 4-(2-(1-(2-chloro-6-methylquinazolin-4-yl)piperidin-2-yl)-5,6,7,8-tetrahydropyrazolo[5,1-b]quinazolin-9-yl)morpholine]
rgRSV224 virus
  EC50: 162 nM
HeLa cells
  TOX HELA pCC50: 4.5

## Cc1cccc2ncnc(N3CCCCC3c3cc4nc5c(c(C)n4n3)CCCC5)c12 (stereo not shown) [Compound P35, 9-methyl-2-(1-(5-methylquinazolin-4-yl)piperidin-2-yl)-5,6,7,8-tetrahydropyrazolo[5,1-b]quinazoline]
rgRSV224 virus
  EC50: 776 nM
HeLa cells
  TOX HELA pCC50: 4.6

## COc1cccc2ncnc(N3CCCCC3c3cc4nc5c(c(N6CCOCC6)n4n3)CCCC5)c12 (stereo not shown) [Compound P12, 4-(2-(1-(5-methoxyquinazolin-4-yl)piperidin-2-yl)-5,6,7,8-tetrahydropyrazolo[5,1-b]quinazolin-9-yl)morpholine]
rgRSV224 virus
  EC50: 75.9 nM
HeLa cells
  TOX HELA pCC50: 4.4

## Cc1cccc2nc(NS(C)(=O)=O)nc(N3CCCCC3c3cc4nc5c(c(N6CCOCC6)n4n3)CCCC5)c12 (stereo not shown) [Compound P7, N-(5-methyl-4-(2-(9-morpholino-5,6,7,8-tetrahydropyrazolo[5,1-b]-quinazolin-2-yl)piperidin-1-yl)quinazolin-2-yl)methanesulfonamide]
rgRSV224 virus
  EC50: 6.03 nM
HeLa cells
  TOX HELA pCC50: 4.2

## Cc1ccc(NS(C)(=O)=O)c(C(=O)N2CCCCC2c2cc3nc4c(c(N(C)C)n3n2)CCCN4C)c1 (stereo not shown) [Compound P26, N-(2-(2-(9-(dimethylamino)-5-methyl-5,6,7,8-tetrahydropyrazolo-[1,5-a]pyrido[2,3-d]pyrimidin-2-yl)piperidine-1-carbonyl)-4-methylphenyl)-methane-sulfonamide]
rgRSV224 virus
  EC50: 1.58 nM
HeLa cells
  TOX HELA pCC50: 4.4

## Cc1cccc2ncnc(N3CCCCC3c3cc4nc5c(c(N6CCOCC6)n4n3)CCCC5)c12 (stereo not shown) [Compound P5, 4-(2-(1-(5-methylquinazolin-4-yl)piperidin-2-yl)-5,6,7,8-tetrahydropyrazolo[5,1-b]quinazolin-9-yl)morpholine]
rgRSV224 virus
  EC50: 275 nM
HeLa cells
  TOX HELA pCC50: 4.6

## Cc1ccc(NS(C)(=O)=O)c(C(=O)N2CCCCC2c2cc3nc4c(c(O)n3n2)CCCC4)c1 (stereo not shown) [Compound P14, N-(2-(2-(9-hydroxy-5,6,7,8-tetrahydropyrazolo[5,1-b]quinazolin-2-yl)-piperidine-1-carbonyl)-4-methylphenyl)methanesulfonamide]
rgRSV224 virus
  EC50: 40.7 nM
HeLa cells
  TOX HELA pCC50: 4.3

## Cc1ccc(NS(C)(=O)=O)c(C(=O)N2CCCCC2c2cc3nc(N(C)C)c4c(n3n2)N(C)CCC4)c1 (stereo not shown) [Compound P27, N-(2-(2-(5-(dimethylamino)-9-methyl-6,7,8,9-tetrahydropyrazolo-[1,5-a]pyrido[3,2-e]pyrimidin-2-yl)piperidine-1-carbonyl)-4-methylphenyl)methane-sulfonamide]
rgRSV224 virus
  EC50: 2.04 nM
HeLa cells
  TOX HELA pCC50: 4.3

## Cc1nc2cc(C3CCCCN3c3ncnc4cccc(C)c34)nn2c2c1CCCC2 (racemic) [Compound P36, 5-methyl-2-(1-(5-methylquinazolin-4-yl)piperidin-2-yl)-6,7,8,9-tetrahydropyrazolo[1,5-a]quinazoline]
rgRSV224 virus
  EC50: 977 nM
HeLa cells
  TOX HELA pCC50: 4.6
